{"source": "patent US5879680A", "about": "“Cloned DNA for synthesizing unique glucocerebrosidase” (The United States of America as represented by the …, priority 1995, dated 1999)", "origin": "cited, not measured here", "target": "human placental glucocerebrosidase (Homo sapiens, UniProt P04062)", "sequence (P04062 40-536)": "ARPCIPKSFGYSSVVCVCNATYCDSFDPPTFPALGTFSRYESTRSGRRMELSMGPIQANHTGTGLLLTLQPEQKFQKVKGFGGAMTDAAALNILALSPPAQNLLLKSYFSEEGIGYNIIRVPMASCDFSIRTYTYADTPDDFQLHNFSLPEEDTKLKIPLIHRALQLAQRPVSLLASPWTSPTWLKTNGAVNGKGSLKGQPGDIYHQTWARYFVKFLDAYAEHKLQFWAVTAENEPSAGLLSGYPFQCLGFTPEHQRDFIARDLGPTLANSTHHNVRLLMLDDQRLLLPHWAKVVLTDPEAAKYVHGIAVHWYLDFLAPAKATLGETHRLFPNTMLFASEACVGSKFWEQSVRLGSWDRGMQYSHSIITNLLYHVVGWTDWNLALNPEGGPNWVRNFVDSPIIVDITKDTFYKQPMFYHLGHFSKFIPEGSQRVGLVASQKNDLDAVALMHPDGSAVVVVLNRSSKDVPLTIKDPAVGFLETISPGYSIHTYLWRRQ", "conditions": "placental enzyme, reported by Basu et al, J.B.C. 259:1714, 1984", "data": [{"molecule": "Cc1cc(=O)oc2cc(O[C@@H]3O[C@H](CO)[C@@H](O)[C@H](O)[C@H]3O)ccc12", "note": "[4MUGP, 4-methylumbellifery-β-D-glucopyranoside]", "values": [{"measurement": "Km", "result": 8, "unit": "mM"}]}]}
